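Growth conditions: 96-well plates. Treatment: test compound, 48 hours, 5 concentrations. Analysis: linear interpolation between bracketing concentrations; unreached endpoints set to highest concentration. The concentration for 50% growth inhibition is given as GI50. At the TGI there is no net growth.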
Columns and labels:
Experiment in all cases: NCI-60 cell line screen, 48 h
IGROV1 ovarian = tested on: IGROV1 ovarian
CCRF-CEM leukemia = tested on: CCRF-CEM leukemia
HCT-116 colon = tested on: HCT-116 colon
NCI-H522 lung = tested on: NCI-H522 lung
SF-268 CNS = tested on: SF-268 CNS
SK-MEL-28 melanoma = tested on: SK-MEL-28 melanoma
NCI-H460 lung = tested on: NCI-H460 lung
NCI-H23 lung = tested on: NCI-H23 lung
OVCAR-5 ovarian = tested on: OVCAR-5 ovarian
HOP-92 NSCLC = tested on: HOP-92 NSCLC
SK-MEL-2 melanoma = tested on: SK-MEL-2 melanoma
T-47D breast = tested on: T-47D breast
EKVX NSCLC = tested on: EKVX NSCLC
HL-60(TB) leukemia = tested on: HL-60(TB) leukemia
K-562 leukemia = tested on: K-562 leukemia
DU-145 prostate = tested on: DU-145 prostate
RXF 393 renal = tested on: RXF 393 renal
BT-549 breast = tested on: BT-549 breast
OVCAR-3 ovarian = tested on: OVCAR-3 ovarian
OVCAR-4 ovarian = tested on: OVCAR-4 ovarian
UO-31 renal = tested on: UO-31 renal
RPMI-8226 leukemia = tested on: RPMI-8226 leukemia
KM12 colon = tested on: KM12 colon
SW-620 colon = tested on: SW-620 colon
UACC-62 melanoma = tested on: UACC-62 melanoma
786-0 renal = tested on: 786-0 renal
HS 578T breast = tested on: HS 578T breast
SF-539 CNS = tested on: SF-539 CNS
SK-MEL-5 melanoma = tested on: SK-MEL-5 melanoma
CAKI-1 renal = tested on: CAKI-1 renal
MCF7 breast = tested on: MCF7 breast
SF-295 CNS = tested on: SF-295 CNS
MDA-MB-231 breast = tested on: MDA-MB-231 breast
OVCAR-8 ovarian = tested on: OVCAR-8 ovarian
HCC-2998 colon = tested on: HCC-2998 colon
HT29 colon = tested on: HT29 colon
U251 CNS = tested on: U251 CNS
SNB-75 CNS = tested on: SNB-75 CNS
SK-OV-3 ovarian = tested on: SK-OV-3 ovarian
MOLT-4 leukemia = tested on: MOLT-4 leukemia
ACHN renal = tested on: ACHN renal
SNB-19 CNS = tested on: SNB-19 CNS
MDA-MB-435 = tested on: MDA-MB-435
M14 melanoma = tested on: M14 melanoma
MALME-3M melanoma = tested on: MALME-3M melanoma
SN12C renal = tested on: SN12C renal
A549 NSCLC = tested on: A549 NSCLC
PC-3 prostate = tested on: PC-3 prostate
TK-10 renal = tested on: TK-10 renal
NCI-H226 lung = tested on: NCI-H226 lung
NCI/ADR-RES ovarian = tested on: NCI/ADR-RES ovarian
COLO 205 colon = tested on: COLO 205 colon
HCT-15 colon = tested on: HCT-15 colon
LOX IMVI melanoma = tested on: LOX IMVI melanoma
A498 renal = tested on: A498 renal
HOP-62 NSCLC = tested on: HOP-62 NSCLC
UACC-257 melanoma = tested on: UACC-257 melanoma

## CCn1c(SCc2ccc(C)cc2)nnc1-c1nn(-c2ccc(Cl)cc2Cl)c(-c2ccc(Cl)cc2)c1C
IGROV1 ovarian
  GI50: 2.62 µM
  TGI: 15.4 µM
CCRF-CEM leukemia
  GI50: 2.51 µM
  TGI: 13.5 µM
HCT-116 colon
  GI50: 0.573 µM
  TGI: 10.6 µM
NCI-H522 lung
  GI50: 1.35 µM
  TGI: 5.2 µM
SF-268 CNS
  GI50: 3.06 µM
  TGI: 14.9 µM
SK-MEL-28 melanoma
  GI50: 3.11 µM
  TGI: 15.3 µM
NCI-H460 lung
  GI50: 1.46 µM
  TGI: 10.5 µM
NCI-H23 lung
  GI50: 2.24 µM
  TGI: 12.5 µM
OVCAR-5 ovarian
  GI50: 3.54 µM
  TGI: 15.2 µM
HOP-92 NSCLC
  GI50: 0.53 µM
  TGI: 4.22 µM
SK-MEL-2 melanoma
  GI50: 3.01 µM
  TGI: 12.5 µM
T-47D breast
  GI50: 0.428 µM
  TGI: 10.1 µM
EKVX NSCLC
  GI50: 2.88 µM
  TGI: 13 µM
HL-60(TB) leukemia
  GI50: 1.6 µM
  TGI: 5.47 µM
K-562 leukemia
  GI50: 0.836 µM
  TGI: 10.4 µM
DU-145 prostate
  GI50: 3.3 µM
  TGI: 13.8 µM
RXF 393 renal
  GI50: 2.69 µM
  TGI: 10.9 µM
BT-549 breast
  GI50: 1.79 µM
  TGI: 5.75 µM
OVCAR-3 ovarian
  GI50: 1.98 µM
  TGI: 11.6 µM
OVCAR-4 ovarian
  GI50: 1.79 µM
  TGI: 12.4 µM
UO-31 renal
  GI50: 2.66 µM
  TGI: 10.8 µM
RPMI-8226 leukemia
  GI50: 0.464 µM
  TGI: 3.05 µM
KM12 colon
  GI50: 1.04 µM
  TGI: 6.31 µM
SW-620 colon
  GI50: 2.56 µM
  TGI: 12.6 µM
UACC-62 melanoma
  GI50: 2.02 µM
  TGI: 10.6 µM
786-0 renal
  GI50: 2.69 µM
  TGI: 12.2 µM
HS 578T breast
  GI50: 3.3 µM
  TGI: 18.4 µM
SF-539 CNS
  GI50: 3.02 µM
  TGI: 11.8 µM
SK-MEL-5 melanoma
  GI50: 1.4 µM
  TGI: 2.74 µM
CAKI-1 renal
  GI50: 2.83 µM
  TGI: 12.6 µM
MCF7 breast
  GI50: 2.26 µM
  TGI: 11.4 µM
SF-295 CNS
  GI50: 2.4 µM
  TGI: 11.7 µM
MDA-MB-231 breast
  GI50: 2.35 µM
  TGI: 8.54 µM
OVCAR-8 ovarian
  GI50: 2.12 µM
  TGI: 10.7 µM
HCC-2998 colon
  GI50: 2.35 µM
  TGI: 13.2 µM
HT29 colon
  GI50: 1.11 µM
  TGI: 10.6 µM
U251 CNS
  GI50: 0.925 µM
  TGI: 11.8 µM
SNB-75 CNS
  GI50: 2.21 µM
  TGI: 11.7 µM
SK-OV-3 ovarian
  GI50: 2.58 µM
  TGI: 8.18 µM
MOLT-4 leukemia
  GI50: 2.15 µM
  TGI: 11 µM
ACHN renal
  GI50: 2.74 µM
  TGI: 10.4 µM
SNB-19 CNS
  GI50: 2.3 µM
  TGI: 13.3 µM
MDA-MB-435
  GI50: 2.85 µM
  TGI: 11.5 µM
M14 melanoma
  GI50: 1.99 µM
  TGI: 10.8 µM
MALME-3M melanoma
  GI50: 2.15 µM
  TGI: 8.88 µM
SN12C renal
  GI50: 2.31 µM
  TGI: 10.8 µM
A549 NSCLC
  GI50: 2.82 µM
  TGI: 11.3 µM
PC-3 prostate
  GI50: 0.49 µM
  TGI: 10.4 µM
TK-10 renal
  GI50: 2.61 µM
  TGI: 10.9 µM
NCI-H226 lung
  GI50: 2.26 µM
  TGI: 13.9 µM
NCI/ADR-RES ovarian
  GI50: 3.54 µM
  TGI: 14.6 µM
COLO 205 colon
  GI50: 1.51 µM
  TGI: 3.39 µM
HCT-15 colon
  GI50: 2.7 µM
  TGI: 11.4 µM
LOX IMVI melanoma
  GI50: 2.72 µM
  TGI: 10.7 µM
A498 renal
  GI50: 1.37 µM
  TGI: 7.88 µM
HOP-62 NSCLC
  GI50: 2.73 µM
  TGI: 11.9 µM

## CC1=C(C(=O)Nc2ccc(F)c(Cl)c2)C(c2cccc(O)c2)NC(=O)N1 (stereo not given)
IGROV1 ovarian
  GI50: 36.1 µM
  TGI: > 100 µM
CCRF-CEM leukemia
  GI50: 79.3 µM
  TGI: > 100 µM
UACC-257 melanoma
  GI50: 54.3 µM
  TGI: > 100 µM
HCT-116 colon
  GI50: 70.7 µM
  TGI: > 100 µM
NCI-H522 lung
  GI50: 49 µM
  TGI: > 100 µM
SF-268 CNS
  GI50: 98 µM
  TGI: > 100 µM
SK-MEL-28 melanoma
  GI50: 58.9 µM
  TGI: > 100 µM
NCI-H460 lung
  GI50: > 100 µM
  TGI: > 100 µM
NCI-H23 lung
  GI50: > 100 µM
  TGI: > 100 µM
OVCAR-5 ovarian
  GI50: > 100 µM
  TGI: > 100 µM
HOP-92 NSCLC
  GI50: 47.5 µM
  TGI: > 100 µM
SK-MEL-2 melanoma
  GI50: 29.5 µM
  TGI: > 100 µM
T-47D breast
  GI50: > 100 µM
  TGI: > 100 µM
EKVX NSCLC
  GI50: 78.1 µM
  TGI: > 100 µM
HL-60(TB) leukemia
  GI50: 6.81 µM
  TGI: > 100 µM
K-562 leukemia
  GI50: 73.5 µM
  TGI: > 100 µM
DU-145 prostate
  GI50: > 100 µM
  TGI: > 100 µM
RXF 393 renal
  GI50: > 100 µM
  TGI: > 100 µM
BT-549 breast
  GI50: 67 µM
  TGI: > 100 µM
OVCAR-3 ovarian
  GI50: 71.8 µM
  TGI: > 100 µM
UO-31 renal
  GI50: 71.4 µM
  TGI: > 100 µM
RPMI-8226 leukemia
  GI50: 55.1 µM
  TGI: > 100 µM
KM12 colon
  GI50: 61.4 µM
  TGI: > 100 µM
SW-620 colon
  GI50: > 100 µM
  TGI: > 100 µM
UACC-62 melanoma
  GI50: 48.7 µM
  TGI: > 100 µM
786-0 renal
  GI50: > 100 µM
  TGI: > 100 µM
HS 578T breast
  GI50: 26.9 µM
  TGI: > 100 µM
SF-539 CNS
  GI50: > 100 µM
  TGI: > 100 µM
SK-MEL-5 melanoma
  GI50: 45.1 µM
  TGI: > 100 µM
CAKI-1 renal
  GI50: > 100 µM
  TGI: > 100 µM
MCF7 breast
  GI50: 58.8 µM
  TGI: > 100 µM
SF-295 CNS
  GI50: > 100 µM
  TGI: > 100 µM
MDA-MB-231 breast
  GI50: 46.2 µM
  TGI: > 100 µM
OVCAR-8 ovarian
  GI50: 62.7 µM
  TGI: > 100 µM
HCC-2998 colon
  GI50: > 100 µM
  TGI: > 100 µM
HT29 colon
  GI50: 81.6 µM
  TGI: > 100 µM
U251 CNS
  GI50: > 100 µM
  TGI: > 100 µM
SNB-75 CNS
  GI50: 17.8 µM
  TGI: 68.3 µM
SK-OV-3 ovarian
  GI50: > 100 µM
  TGI: > 100 µM
ACHN renal
  GI50: > 100 µM
  TGI: > 100 µM
SNB-19 CNS
  GI50: > 100 µM
  TGI: > 100 µM
MDA-MB-435
  GI50: 59.7 µM
  TGI: > 100 µM
M14 melanoma
  GI50: 71.4 µM
  TGI: > 100 µM
SN12C renal
  GI50: > 100 µM
  TGI: > 100 µM
A549 NSCLC
  GI50: > 100 µM
  TGI: > 100 µM
PC-3 prostate
  GI50: 63.9 µM
  TGI: > 100 µM
TK-10 renal
  GI50: > 100 µM
  TGI: > 100 µM
NCI-H226 lung
  GI50: 85.9 µM
  TGI: > 100 µM
NCI/ADR-RES ovarian
  GI50: > 100 µM
  TGI: > 100 µM
COLO 205 colon
  GI50: > 100 µM
  TGI: > 100 µM
HCT-15 colon
  GI50: > 100 µM
  TGI: > 100 µM
LOX IMVI melanoma
  GI50: > 100 µM
  TGI: > 100 µM
A498 renal
  GI50: 5.04 µM
  TGI: > 100 µM
HOP-62 NSCLC
  GI50: > 100 µM
  TGI: > 100 µM
